Assay results reported in patent US20170182040A1, “EPITHELIAL ION CHANNEL (ENAC) BLOCKERS TO TREAT PSORIASIS” (The Board of Trustees of the Leland Stanford Junior …, priority 2014, published 2017).

Tested on: K14 Rac1 animal model for psoriasis
Experiment: K14 V12 Rac1 mouse model of psoriasis, IP treatment
Type: in vivo
Conditions: IP 10 mg/kg every other day, 20 treatments
Experimental: FIG. 1: IP treatment with benzamil ameliorates phenotype in a mouse model of psoriasis. […] (c) IP efficacy was dose-dependent (2.1-1.4-0.7 mg/kg 20 treatments) and distinct from another ENAC blocker Amiloride (10 mg/kg).
FIG. 4: Benzamil alter Rac/STAT3 signaling, has effect on human psoriatic keratinocytes. […] Effects on Rac1 and PSTAT3 by Benzamil (10 uM) were validated in human primary psoriatic keratinocytes (Rac1-green, PSTAT3-red, DNA-blue) (b).
Mice overexpressing a K14 driven hyperactive V12 Rac1 mutant display clinical-histologic features mimicking human psoriasis including hyperkeratosis, erythema, Koebnerization, Auspitz sign, arthritis, onychodystrophy, marked psoriasiform hyperplasia, parakeratosis, Munro microabcesses, dilated rete ridge blood vessels and characteristic immune infiltrates. Rac1 mouse and human psoriasis skin show similar epidermal thickness, suprabasilar Ki67, and increased expression of IL 1, 6, 17, 23, 36/CCL 2, 5, 17, 20/TNFα/TGFα/CARD14/IFIH1/IRFs, NFKB, STAT3 activation/β defensins/Act1/IL17R. Transcriptional comparison of psoriasis susceptibility genes in Rac1 mouse and human psoriatic skin show marked overlap of both epidermal and immune pathways. […] See, for example Winge et al. Journal of Investigative Dermatology (2014) 134, S9-S27.
Benzamil attenuates Rac1-mediated psoriasis in a mouse model. In a K14 Rac1 animal model for psoriasis, Benzamil was injected ip every other day for 0, 10 and 20 injections of (2 mg/kg), or PBS.
In psoriasis keratinocytes, cytokine-mediated nuclear translocation of PSTAT3 and NFκB is reduced following Benzamil treatment.

N=C(N)NC(=O)c1nc(Cl)c(N)nc1N [Amiloride, amiloride]
Edema: reduced | Overall effect of IP treatment: Little or no effect | Psoriasiform hyperplasia (histology): retained | Rac1 activation, ki67 and TGFα expression and immune cell infiltration (CD3+/cd11c+): high | Scaling: did not have distinct effect
